In patent publication US20110263516A1, “VASODILATOR” (CALPIS CO., LTD., priority 2006, published 2011):

What was measured:
[1] = tested on: thoracic aorta ring of a Wistar rat; test: Vasodilating test on phenylephrine-preconstricted aorta ring (Magnus apparatus); type: cell-based; conditions: aorta ring preconstricted with 1 μM phenylephrine; for vasodilator response at 10 mM: FIG. 1; for concentration from which the vasodilator response was observed: ten-fold increasing concentrations from 10^-9 M, change in tension
Experimental: The thoracic aorta of a Wistar rat was taken out, cut into 2 mm long, and made into an aorta ring. The ring was set in a Magnus apparatus (product name “micro tissue organ bath MTB-1Z”, manufactured by LABO SUPPORT CO., LTD.), and allowed to equilibrate with a constant tension. The constriction response of the aorta ring was confirmed with 50 mM KCl.
Next, the aorta ring was preliminarily constricted with 1 μM phenylephrine, and VPP and IPP prepared in Synthesis Example were added at ten-fold increasing concentrations from 10^−9 M to observe the vasodilator response through the change in tension of the aorta ring. The dose dependency of the vasodilator response was also studied.
The vasodilating test was conducted in the same way as in Example 1, except that the tripeptides VPP and IPP were replaced with amino acids, valine (Val) and proline (Pro), at the same concentration.

[2] = tested on: blood vessel from which the vascular endothelium was physically removed; test: Confirmatory test for endothelium dependency of vasodilator response; type: cell-based, Wistar rat; conditions: endothelium-removed vessel compared with intact vessel; FIG. 2
Experimental: In order to confirm that the vasodilator effect of VPP and IPP was associated with the vascular endothelium, a vasodilating test similar to the above was conducted with VPP, using as a control a blood vessel from which the vascular endothelium was physically removed by a routine method.

O=C(O)[C@@H]1CCCN1 [Pro, proline, reference compound]
vasodilator response at 10 mM [1]: no vasodilator response was observed

CC(C)[C@H](N)C(=O)O [Val, valine, reference compound]
vasodilator response at 10 mM [1]: no vasodilator response was observed

Ile-Pro-Pro [IPP]
vasodilator response at 10 mM [1]: clear, transient vasodilator response
concentration from which the vasodilator response was observed [1]: 1 mM

Val-Pro-Pro [VPP]
vasodilator response at 10 mM [1]: clear, transient vasodilator response
concentration from which the vasodilator response was observed [1]: 1 mM
vasodilator response after removal of the endothelium [2]: weakened
